In brackets after ≈: the same amount, converted by molar mass. Several values for one entry are separate records, joined by “and”; a condition that tells them apart may be missing. Equal entries are not always repeated. Where two headings read alike, the source gives them in different places.
Assays:
physchem [1] = experiment: physchem
[2] = tested on: Madin Darby Canine Kidney (MDCK); settings: for P-glycoprotein (P-gp) efflux (in words) / permeability (in words): MDCK-MDR1; for P-gp Efflux B→ A/A → B: dog, MDCK
[3] = female, C57 Black, mouse, in vivo, iv, 3 mg/kg
Description: (§1) Test compound was dosed as a bolus solution intravenously at 3 mg of free base/kilogram (dose volume 5 mL/kg; dose vehicle Saline or 10% DMSO; 40% PEG400; 50% saline) to female C57 Black (n = 3) or dosed orally by gavage as a solution at 10 mg of free base/kilogram (dose volume 10 mL/kg; dose vehicle 10% DMSO; 40% PEG400; 50% distilled water) to female C57 Black (n = 3/dose level). Blood samples were taken from each mouse tail vein at predetermined time points postdose, mixed with two volumes of distilled water, and stored frozen until UPLC/MS/MS analysis. Pharmacokinetic parameters were derived from the blood concentration time curve using PK Solutions software v 2.0 (Summit Research Services, USA).

in vitro = settings: dog, MDCK-MDR1
in vivo = settings: female, C57 Black, mouse
Description: as §1

Vero cells [4] = experiment: cells; settings: Chlorocebus sabaeus, read-out: VERO IC50
Description: (§2) Compounds were solubilized in DMSO and assayed as a 10-point 3-fold serial dilution. Compounds were incubated with cells for 2 days at 37 °C, 5% CO2. CellTiter-Glo Reagent (Promega) was added and relative luminescent units (RLU) measured.

[5] = for Cli mouse / scaled Clpre: female, CD1, mouse, pH 7.4; for CL mouse MEAN / in vitro mouse Clint: microsomes
M. tuberculosis H37Rv [6] = experiment: microbe, parasite or virus in culture; format: cell-based, Mycobacterium tuberculosis; settings: for MIC / MIC90 / IC90: Mycobacterium tuberculosis, H37RV; for MIC90: read-out: MIC (MIC90); for IC90: read-out: TB-IC90_OD GEOM_MEAN
Vero cells [7] = settings: read-out: VERO IC50
Description: as §2

physchem [8] = experiment: physchem; remark: listed apart in the source
physchem [9] = experiment: physchem; remark: listed apart in the source
Description: Samples are stirred for 20 h and filtered through a 0.7 μm GF filter. The filtrate was analyzed by HPLC assay for concentration against DMSO standard curve.[40]

M. tuberculosis H37Rv [10] = format: cell-based, Mycobacterium tuberculosis
physchem [11] = settings: aqueous with cosolvent or surfactant or cyclodextrin, kinetic from dmso stock
M. tuberculosis H37Rv [12] = tested on: M. tuberculosis H37Rv; set-up: species or system Mycobacterium tuberculosis; settings: in vivo

Structure (SMILES) | chromatographic logD (physchem [1]) | IC50 (Vero cells [4]) | Cli mouse [5] | CL mouse MEAN [5] | MIC90 (M. tuberculosis H37Rv [6]) | IC90 (M. tuberculosis H37Rv [6]) | solubility kinetic (physchem [11]) | also measured
CC1(COc2cc(N3CCOCC3)sc2C(N)=O)COC1 [Compound 46, 3-((3-Methyloxetan-3-yl)methoxy)-5-morpholinothiophene-2-carboxamide] | 0.707 | > 100 µM | 2.1 mL.min^–1.g^–1 | 2.051 mL/min/g | > 20 µM |  |  | P-glycoprotein (P-gp) efflux (in words) [2]: no likely P-glycoprotein (P-gp) efflux issues; permeability (in words) [2]: good permeability; P-gp Efflux B→ A/A → B [2]: 2; CLB [3]: 31 mL/min/kg; T1/2 [3]: 42 min; Papp A→B (in vitro): 19 ×10⁻⁶ cm/s; Papp B→A (in vitro): 35 ×10⁻⁶ cm/s; bioavailability (in vivo; po, 10 mg/kg): 38%; scaled Clpre [5]: 56 mL/min/kg; in vitro mouse Clint [5]: 2.1 mL/min/g; antitubercular whole cell activity (in words) (M. tuberculosis H37Rv [6]): no measurable MIC activity; MIC (M. tuberculosis H37Rv [6]; read-out: H37Rv MIC): > 6.2 µg/mL
CON(C)C(=O)c1sc(N2CCOCC2)cc1OCCc1ccccc1 [Compound 25, N-Methoxy-N-methyl-5-morpholino-3-phenethoxythiophene-2-carboxamide] |  |  | 0.5 mL.min^–1.g^–1 | 0.5 mL/min/g | 1.8 µM (≈ 0.678 µg/mL) | 1.7 µM |  | AUC (in vivo; po, 10 mg/kg): 86.7 ng·h/mL; in vitro mouse Clint [5]: <0.5 mL/min/g; MIC (M. tuberculosis H37Rv [6]; read-out: H37Rv MIC): 0.64 µg/mL
CC(=O)c1sc(N2CCOCC2)cc1OCCc1ccccc1 [Compound 20, 1-[5-Morpholino-3-(2-phenylethoxy)-2-thienyl]ethanone] | 2.78 | 84 µM | 41 mL.min^–1.g^–1 | 41.42 mL/min/g | 0.42 µM (≈ 0.139 µg/mL) | 0.424 µM |  | IC50 (Vero cells [7]): 82.2 µM; solubility (physchem [8]; pH 2.4): 400 µg/mL (≈ 1210 µM); solubility (physchem [9]; pH 2): 600 µg/mL (≈ 1810 µM); solubility (physchem [9]; pH 7.4): 30 µg/mL (≈ 90.5 µM)
CO[C@H]1/C=C/O[C@@]2(C)Oc3c(C)c(O)c4c(O)c(c(/C=N/N5CCN(C)CC5)c(O)c4c3C2=O)NC(=O)/C(C)=C\C=C\[C@H](C)[C@H](O)[C@@H](C)[C@@H](O)[C@@H](C)[C@H](OC(C)=O)[C@@H]1C [rifampicin] |  |  |  |  |  |  |  | ATP levels versus growth (OD590) (M. tuberculosis H37Rv [10]): correlated with growth
NC(=O)c1cc(N2CCOCC2)ccc1OCCc1ccccc1 [Compound 55, 5-Morpholino-2-(2-phenylethoxy)benzamide] | 1.9 | > 100 µM | 3.8 mL.min^–1.g^–1 | 3.79 mL/min/g | 5.7 µM (≈ 1.86 µg/mL) |  |  | CLB [3]: 32 mL/min/kg; T1/2 [3]: 72 min; AUC (in vivo; iv, 3 mg/kg): 1590 ng·h/mL; bioavailability (in vivo; po, 10 mg/kg): 5%; solubility (physchem [8]; pH 2.4): 1300 µg/mL (≈ 3980 µM); solubility (physchem [8]; pH 6): 300 µg/mL (≈ 919 µM); solubility (physchem [9]; pH 2): 600 µg/mL (≈ 1840 µM); solubility (physchem [9]; pH 6): 300 µg/mL (≈ 919 µM); solubility (physchem [9]; pH 7.4): 300 µg/mL (≈ 919 µM); scaled Clpre [5]: 68 mL/min/kg; in vitro mouse Clint [5]: 4 mL/min/g; MIC (M. tuberculosis H37Rv [6]; read-out: H37Rv MIC): 1.9 µg/mL
NC(=O)c1sc(-n2nccn2)cc1OCCc1ccccc1 [Compound 34, 3-(2-Phenylethoxy)-5-(triazol-2-yl)thiophene-2-carboxamide] | 2.41 | > 100 µM | 30 mL.min^–1.g^–1 | 30.46 mL/min/g | 2 µM (≈ 0.629 µg/mL) | 2.05 µM | 78.5 µM (≈ 24.7 µg/mL) | 
NC(=O)c1sc(N2CCOCC2)cc1OCCc1cccc(F)c1 [Compound 39, 3-[2-(3-Fluorophenyl)ethoxy]-5-morpholinothiophene-2-carboxamide] | 2.05 | > 100 µM | 18 mL.min^–1.g^–1 | 17.63 mL/min/g | 0.43 µM (≈ 0.151 µg/mL) | 0.469 µM | 219 µM (≈ 76.7 µg/mL) | MIC (M. tuberculosis H37Rv [6]; read-out: MIC WT): 0.53 µM
NC(=O)c1sc(-c2ccncc2)cc1OCCc1ccccc1 [Compound 35, 3-(2-Phenylethoxy)-5-(4-pyridyl)thiophene-2-carboxamide] | 1.9 | 5.9 µM | 41 mL.min^–1.g^–1 | 40.84 mL/min/g | 5.3 µM (≈ 1.72 µg/mL) | 5.08 µM | 219 µM (≈ 71 µg/mL) | IC50 (Vero cells [7]): 5.62 µM; MIC (M. tuberculosis H37Rv [6]; read-out: MIC WT): 5.8 µM
c1ccc(CCOc2csc(N3CCOCC3)c2)cc1 [Compound 19, 4-[4-(2-Phenylethoxy)-2-thienyl]morpholine] | 1.96 | 68 µM | 37 mL.min^–1.g^–1 | 37.17 mL/min/g | > 20 µM | > 20 µM | 174 µM (≈ 50.2 µg/mL) | IC50 (Vero cells [7]): 61.7 µM
NC(=O)c1sc(N2CCCCC2)cc1OCCc1ccccc1 [Compound 28, 3-(2-Phenylethoxy)-5-(1-piperidyl)thiophene-2-carboxamide] | 3.04 | > 100 µM | 42 mL.min^–1.g^–1 | 42.23 mL/min/g | 8.9 µM (≈ 2.94 µg/mL) | 11 µM | 78.5 µM (≈ 25.9 µg/mL) | 
CCOC(=O)NC(=O)c1sc(N2CCOCC2)cc1OCCc1ccccc1 [Compound 26, Ethyl N-[5-Morpholino-3-(2-phenylethoxy)thiophene-2-carbonyl]carbamate] | 2.73 | > 100 µM | 1 mL.min^–1.g^–1 | 0.9584 mL/min/g | > 20 µM | > 20 µM | 65.8 µM (≈ 26.6 µg/mL) | antitubercular whole cell activity (in words) (M. tuberculosis H37Rv [6]): inactive
COc1c(N2C[C@@H]3CCCN[C@@H]3C2)c(F)cc2c(=O)c(C(=O)O)cn(C3CC3)c12 [Moxifloxacin] |  |  |  |  |  |  |  | log CFUs per mouse (lungs), individual mice (M. tuberculosis H37Rv [12]): 3.8 log CFU (2×) and 4.4 log CFU and 4.0 log CFU and 3.9 log CFU; log CFUs per mouse (lungs), mean (M. tuberculosis H37Rv [12]): 4.0 log CFU; reduction of CFU lung number with respect to untreated mice (M. tuberculosis H37Rv [12]): 2.8 logs
O=C(NC1CCC1)c1sc(N2CCOCC2)cc1OCCc1ccccc1 [Compound 24, N-Cyclobutyl-5-morpholino-3-phenethoxythiophene-2-carboxamide] | 3.21 | 24 µM | 0.5 mL.min^–1.g^–1 | 0.5 mL/min/g | > 20 µM | > 20 µM | 175 µM (≈ 67.6 µg/mL) | IC50 (Vero cells [7]): 24 µM
NC(=O)c1sc(-n2cnc3ccccc32)cc1OCCc1ccccc1 [Compound 33, 5-(Benzimidazol-1-yl)-3-(2-phenylethoxy)thiophene-2-carboxamide] | 2.39 | > 100 µM | 28 mL.min^–1.g^–1 | 28.23 mL/min/g | > 20 µM | > 20 µM | 27.5 µM (≈ 9.99 µg/mL) | antitubercular whole cell activity (in words) (M. tuberculosis H37Rv [6]): inactive
CCc1nc2ccc(Cl)cn2c1C(=O)NCc1ccc(N2CCC(c3ccc(OC(F)(F)F)cc3)CC2)cc1 [Compound Q203] |  |  |  |  |  |  |  | ATP levels versus growth (OD590) (M. tuberculosis H37Rv [10]): depletion of ATP occurred at lower concentrations than required to inhibit growth
NC(=O)c1sc(CN2CCOCC2)cc1OCCc1ccccc1 [Compound 18, 5-(Morpholinomethyl)-3-(2-phenylethoxy)thiophene-2-carboxamide] | 1.71 | > 100 µM | 3 mL.min^–1.g^–1 | 3.219 mL/min/g | > 20 µM | > 20 µM |  | P-glycoprotein (P-gp) efflux (in words) [2]: no likely P-glycoprotein (P-gp) efflux issues; permeability (in words) [2]: good permeability; P-gp Efflux B→ A/A → B [2]: 0.8; Papp A→B (in vitro): 62 ×10⁻⁶ cm/s; Papp B→A (in vitro): 53 ×10⁻⁶ cm/s; solubility (physchem [8]; pH 2.4): 1700 µg/mL (≈ 4910 µM); solubility (physchem [9]; pH 2): 700 µg/mL (≈ 2020 µM); solubility (physchem [9]; pH 7.4): 300 µg/mL (≈ 866 µM); antitubercular whole cell activity (in words) (M. tuberculosis H37Rv [6]): not active

Source: PMC6089501 (Journal of Medicinal Chemistry, 2018)
